Laboratory results reported in the NIST ThermoML archive (doi:10.1016/j.jct.2014.01.023).

Details: Crystal; for vapor or sublimation pressure: Transpiration method

CN1C(=O)NC(=O)C(C)(C)C1=O [1,5,5-trimethylbarbituric acid]
Details | vapor or sublimation pressure [kPa]
360 K | 0.00265
366.1 K | 0.00471
366.2 K | 0.00487
374.2 K | 0.00972
379.6 K | 0.01551
380.8 K | 0.01685
382.7 K | 0.02034
386.8 K | 0.02976
387.5 K | 0.02935
388.7 K | 0.03375
389.7 K | 0.03771
392.6 K | 0.04726
393.7 K | 0.05266
396.7 K | 0.06438
402.5 K | 0.09884
406.7 K | 0.1462
410.2 K | 0.187
411.7 K | 0.196
414.2 K | 0.2461
419.9 K | 0.3607
427.9 K | 0.6087

CC1C(=O)N(C)C(=O)N(C)C1=O [1,3,5-trimethylbarbituric acid]
Details | Normal melting temperature [°C] | vapor or sublimation pressure [kPa]
322.5 K | – | 0.00289
328.4 K | – | 0.00528
332.6 K | – | 0.00792
338.6 K | – | 0.01482
343 K | – | 0.02296
349.4 K | – | 0.04451
354.5 K | – | 0.06767
358.6 K | – | 0.09676
DTA | 90.50 | –

CN1C(=O)N(C)C(=O)C(C)(C)C1=O [1,3,5,5-tetramethylpyrimidine-2,4,6(1H,3H,5H)-trione]
Details | vapor or sublimation pressure [kPa]
323.2 K | 0.00344
326.2 K | 0.00457
328.2 K | 0.00555
332.1 K | 0.00801
334.2 K | 0.0099
336.2 K | 0.01132
338.2 K | 0.01415
340.1 K | 0.01647
342.9 K | 0.02036
346 K | 0.02803
347.4 K | 0.03182
349.2 K | 0.03555
350.1 K | 0.04039
351 K | 0.04459
351.1 K | 0.04429
352.9 K | 0.05014
355.2 K | 0.05715
356.2 K | 0.06561
360.2 K | 0.08943
365 K | 0.135
367.6 K | 0.168
